pIC50: −log10 of the molar value. Several values for one entry are separate records, joined by “and”; a condition that tells them apart may be missing. Equal values may be shown once.
System: Hs578T complex spheroid growth, percent test/control
Assay: Anticancer human tumor Hs578T cell line growth inhibition [AhR];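 also: luminescent viability signal as a proxy for spheroid growth; spheroids exposed to agents for one week after three days of growth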
Conditions: for viability, T/C: stronger effect = lower value; active = viability on the fitted dose curve at most 10% of control; inactive = the rest
Summary of the method: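 Agents were dosed in half-log steps down from roughly clinical Cmax, or from 10 microM where Cmax was unknown, alone and with AhR antagonists. Read-out: percent test/control growth of tumor spheroids containing HUVEC and MSC stromal cells.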

[1] = curve of first compound, second compound 0.1 µM
[2] = curve of first compound, second compound 0.316 µM
[3] = curve of first compound, second compound 1 µM
[4] = curve of first compound, second compound 3.16 µM
[5] = curve of first compound, second compound 10 µM
[6] = second compound 0.1 µM, first compound 0.0316 µM
[7] = second compound 0.1 µM, first compound 0.1 µM
[8] = second compound 0.1 µM, first compound 0.316 µM
[9] = second compound 0.1 µM, first compound 1 µM
[10] = second compound 0.1 µM, first compound 3.16 µM
[11] = second compound 0.1 µM, first compound 10 µM
[12] = second compound 0.316 µM, first compound 0.0316 µM
[13] = second compound 0.316 µM, first compound 0.1 µM
[14] = second compound 0.316 µM, first compound 0.316 µM
[15] = second compound 0.316 µM, first compound 1 µM
[16] = second compound 0.316 µM, first compound 3.16 µM
[17] = second compound 0.316 µM, first compound 10 µM
[18] = second compound 1 µM, first compound 0.0316 µM
[19] = second compound 1 µM, first compound 0.1 µM
[20] = second compound 1 µM, first compound 0.316 µM
[21] = second compound 1 µM, first compound 1 µM
[22] = second compound 1 µM, first compound 3.16 µM
[23] = second compound 1 µM, first compound 10 µM
[24] = second compound 3.16 µM, first compound 0.0316 µM
[25] = second compound 3.16 µM, first compound 0.1 µM
[26] = second compound 3.16 µM, first compound 0.316 µM
[27] = second compound 3.16 µM, first compound 1 µM
[28] = second compound 3.16 µM, first compound 3.16 µM
[29] = second compound 3.16 µM, first compound 10 µM
[30] = second compound 10 µM, first compound 0.0316 µM
[31] = second compound 10 µM, first compound 0.1 µM
[32] = second compound 10 µM, first compound 0.316 µM
[33] = second compound 10 µM, first compound 1 µM
[34] = second compound 10 µM, first compound 3.16 µM
[35] = second compound 10 µM, first compound 10 µM

O=C(c1cc(Cc2n[nH]c(=O)c3ccccc23)ccc1F)N1CCN(C(=O)C2CC2)CC1 + Cc1ccccc1N=Nc1ccc(NC(=O)c2ccnn2C)c(C)c1
< 5.00: pIC50 [1] | pIC50 [2] | pIC50 [3] | pIC50 [4] | pIC50 [5]
inactive: viability, T/C [6] 96.8% | viability, T/C [7] 104% | viability, T/C [8] 109% | viability, T/C [9] 101% | viability, T/C [10] 96.9% | viability, T/C [11] 80.9% | viability, T/C [12] 101% | viability, T/C [13] 107% | viability, T/C [14] 100% | viability, T/C [15] 101% | viability, T/C [16] 88.2% | viability, T/C [17] 72.1% | viability, T/C [18] 104% | viability, T/C [19] 109% | viability, T/C [20] 104% | viability, T/C [21] 99.6% | viability, T/C [22] 104% | viability, T/C [23] 81.3% | viability, T/C [24] 96.9% | viability, T/C [25] 97.7% | viability, T/C [26] 94.9% | viability, T/C [27] 96.8% | viability, T/C [28] 85.9% | viability, T/C [29] 72.3% | viability, T/C [30] 66.8% | viability, T/C [31] 70.7% | viability, T/C [32] 76.5% | viability, T/C [33] 69.3% | viability, T/C [34] 67.6% | viability, T/C [35] 63.5%

CCN(c1cc(-c2ccc(CN3CCOCC3)cc2)cc(C(=O)NCc2c(C)cc(C)[nH]c2=O)c1C)C1CCOCC1 + Cc1cncc(-c2nc(NCCc3c[nH]c4ccccc34)c3ncn(C(C)C)c3n2)c1
> 8.02: pIC50 [4] | pIC50 [5]
active: viability, T/C (second compound 10 µM, first compound 0.00949 µM) 6.41% | viability, T/C (second compound 10 µM, first compound 0.03 µM) 5.56% | viability, T/C (second compound 10 µM, first compound 0.0949 µM) 7.45% | viability, T/C (second compound 10 µM, first compound 0.3 µM) 5.08% | viability, T/C (second compound 10 µM, first compound 0.949 µM) 5.95% | viability, T/C (second compound 10 µM, first compound 3 µM) 3.67%
< 5.52: pIC50 [1] | pIC50 [2] | pIC50 [3]
inactive: viability, T/C (second compound 0.1 µM, first compound 0.00949 µM) 111% | viability, T/C (second compound 0.1 µM, first compound 0.03 µM) 95.9% | viability, T/C (second compound 0.1 µM, first compound 0.0949 µM) 101% | viability, T/C (second compound 0.1 µM, first compound 0.3 µM) 107% | viability, T/C (second compound 0.1 µM, first compound 0.949 µM) 94.4% | viability, T/C (second compound 0.1 µM, first compound 3 µM) 106% | viability, T/C (second compound 0.316 µM, first compound 0.00949 µM) 111% | viability, T/C (second compound 0.316 µM, first compound 0.03 µM) 99.9% | viability, T/C (second compound 0.316 µM, first compound 0.0949 µM) 106% | viability, T/C (second compound 0.316 µM, first compound 0.3 µM) 96.6% | viability, T/C (second compound 0.316 µM, first compound 0.949 µM) 99.5% | viability, T/C (second compound 0.316 µM, first compound 3 µM) 90.7% | viability, T/C (second compound 1 µM, first compound 0.00949 µM) 103% | viability, T/C (second compound 1 µM, first compound 0.03 µM) 102% | viability, T/C (second compound 1 µM, first compound 0.0949 µM) 101% | viability, T/C (second compound 1 µM, first compound 0.3 µM) 93.5% | viability, T/C (second compound 1 µM, first compound 0.949 µM) 105% | viability, T/C (second compound 1 µM, first compound 3 µM) 93.3% | viability, T/C (second compound 3.16 µM, first compound 0.00949 µM) 49.8% | viability, T/C (second compound 3.16 µM, first compound 0.03 µM) 46.4% | viability, T/C (second compound 3.16 µM, first compound 0.0949 µM) 51.5% | viability, T/C (second compound 3.16 µM, first compound 0.3 µM) 48% | viability, T/C (second compound 3.16 µM, first compound 0.949 µM) 46% | viability, T/C (second compound 3.16 µM, first compound 3 µM) 51.7%

CC(C)c1c(-c2ccccc2)nc2c(C#N)c[nH]n2c1=O + Cc1cncc(-c2nc(NCCc3c[nH]c4ccccc34)c3ncn(C(C)C)c3n2)c1
> 7.50: pIC50 [5]
inactive: viability, T/C [6] 114% | viability, T/C [7] 113% | viability, T/C [8] 110% | viability, T/C [9] 108% | viability, T/C [10] 109% | viability, T/C [11] 96.4% | viability, T/C [12] 112% | viability, T/C [13] 104% | viability, T/C [14] 113% | viability, T/C [15] 103% | viability, T/C [16] 109% | viability, T/C [17] 107% | viability, T/C [18] 99.6% | viability, T/C [19] 101% | viability, T/C [20] 107% | viability, T/C [21] 100% | viability, T/C [22] 102% | viability, T/C [23] 99.5% | viability, T/C [24] 61.3% | viability, T/C [25] 65.5% | viability, T/C [26] 68.6% | viability, T/C [27] 62.9% | viability, T/C [28] 55.8% | viability, T/C [29] 66.9%
< 5.00: pIC50 [1] | pIC50 [2] | pIC50 [3] | pIC50 [4]
active: viability, T/C [30] 4.95% | viability, T/C [31] 6.12% | viability, T/C [32] 4.81% | viability, T/C [33] 4.87% | viability, T/C [34] 5.51% | viability, T/C [35] 7.39%

COc1cccc2c1C(=O)c1c(O)c3c(c(O)c1C2=O)CC(O)(C(=O)CO)CC3OC1CC(N)C(O)C(C)O1 (configuration not stated)
inactive: viability, T/C (compound 0.0316 µM) 94.7% and 85.6% and 84.9% | viability, T/C (compound 0.1 µM) 76.8% and 79.4% and 75.8% | viability, T/C (compound 0.316 µM) 64.8% and 54.3% and 58.2% | viability, T/C (compound 1 µM) 22.9% and 18.6% and 23.3%
active: viability, T/C (compound 3.16 µM) 3.73% and 2.18% and 2.52% | viability, T/C (compound 10 µM) 3.36% and 2.24% and 3.77%
6.35 and 6.44 and 6.39: pIC50 (curve of compound)

Nc1ccn(C2OC(CO)C(O)C2(F)F)c(=O)n1 (configuration not stated) + Cc1cncc(-c2nc(NCCc3c[nH]c4ccccc34)c3ncn(C(C)C)c3n2)c1
> 7.50: pIC50 [4] | pIC50 [5]
inactive: viability, T/C [6] 59.4% | viability, T/C [7] 59.6% | viability, T/C [8] 62.6% | viability, T/C [9] 56.5% | viability, T/C [10] 57.5% | viability, T/C [11] 56.8% | viability, T/C [12] 67.2% | viability, T/C [13] 65.4% | viability, T/C [14] 63% | viability, T/C [15] 60.9% | viability, T/C [16] 59.4% | viability, T/C [17] 59.2% | viability, T/C [18] 61.6% | viability, T/C [19] 65.2% | viability, T/C [20] 56.3% | viability, T/C [21] 57.8% | viability, T/C [22] 56.8% | viability, T/C [23] 56.2% | viability, T/C [24] 37.8% | viability, T/C [25] 42.8% | viability, T/C [26] 41.1% | viability, T/C [27] 40.4% | viability, T/C [28] 33.3% | viability, T/C [29] 37.8%
< 5.00: pIC50 [1] | pIC50 [2] | pIC50 [3]
active: viability, T/C [30] 4.28% | viability, T/C [31] 4.47% | viability, T/C [32] 3.43% | viability, T/C [33] 2.76% | viability, T/C [34] 3.29% | viability, T/C [35] 4.67%

From PubChem BioAssay AID1919010 (Molecular Pharmacology Branch, DTP, NCI, 2023)
